Reference: PMC10828444, “Selective inhibition of overactive warmth-sensitive Ca^2+-permeable TRPV3 channels by antispasmodic agent flopropione for alleviation of skin inflammation” (The Journal of Biological Chemistry, 2023)
Where a chain is given by its changes, count along the chain named.

What was measured:
Assay type in all cases: cell-based
hTRPV1 = molecular target: T1, hTRPV1 (Homo sapiens, UniProt Q8NER1); assay: Whole-cell patch-clamp of TRPV1 currents evoked by capsaicin in HEK293 cells; conditions: flopropione 100 μM, 1 μM capsaicin
T1 construct: expressed in transfected cells; host or cells: HEK293
T1 sequence (Q8NER1 whole entry): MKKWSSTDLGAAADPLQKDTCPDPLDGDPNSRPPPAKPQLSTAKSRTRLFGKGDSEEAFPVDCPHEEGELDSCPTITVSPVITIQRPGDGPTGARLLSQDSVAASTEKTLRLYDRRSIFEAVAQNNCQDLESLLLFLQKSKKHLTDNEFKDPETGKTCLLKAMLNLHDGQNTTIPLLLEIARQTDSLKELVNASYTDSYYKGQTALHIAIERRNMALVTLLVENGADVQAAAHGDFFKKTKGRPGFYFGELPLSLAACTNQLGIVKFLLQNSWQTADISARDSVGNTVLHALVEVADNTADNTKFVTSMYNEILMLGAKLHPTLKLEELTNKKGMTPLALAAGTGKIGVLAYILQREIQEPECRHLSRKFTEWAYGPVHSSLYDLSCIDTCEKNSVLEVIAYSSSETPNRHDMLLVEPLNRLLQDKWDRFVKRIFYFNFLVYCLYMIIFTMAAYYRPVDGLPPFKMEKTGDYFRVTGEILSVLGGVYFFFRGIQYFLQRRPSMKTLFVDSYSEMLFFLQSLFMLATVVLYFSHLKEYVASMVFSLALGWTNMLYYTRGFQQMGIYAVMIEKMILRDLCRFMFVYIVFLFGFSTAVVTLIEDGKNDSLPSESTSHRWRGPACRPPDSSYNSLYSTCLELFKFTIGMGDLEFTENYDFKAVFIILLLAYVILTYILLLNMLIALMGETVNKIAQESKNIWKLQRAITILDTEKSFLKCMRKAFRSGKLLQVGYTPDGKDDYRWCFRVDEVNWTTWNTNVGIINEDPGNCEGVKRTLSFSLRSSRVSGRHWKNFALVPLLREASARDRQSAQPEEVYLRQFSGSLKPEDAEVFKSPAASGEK
Method: (§1) HEK293 cells were cultured in Dulbecco’s modified Eagle’s medium (DMEM, Gibco) containing 4.5 g/L D-glucose supplemented with 10% fetal bovine serum based at 37 °C with 5% CO2. For whole-cell patch-clamp recordings, cells were grown in glass coverslips for 24 h before transient transfections with 3000 ng cDNAs of hTRPV3 (gene accession number BC104866.1), hTRPV1 (accession number NM_080704.3), mTRPV2 (accession number NM_011706.2), hTRPV4 (accession number NM_021625.5), hTRPA1 (accession number NM_007332.3) and hTRPM8 (accession number NM_024080.5) into HEK293 cells grown in a 35-mm cell culture dish using Lipofectamine 2000 (Invitrogen). Cells were used 18 ∼ 24 h after transfection. All WT or mutant hTRPV3 plasmids were validated by DNA sequencing.
(§2) Whole-cell patch clamp recordings of wild-type and mutants were carried out at room temperature using the HEKA EPC10 amplifier powered by PatchMaster software (HEKA) or MultiClamp 700B amplifier driven by Clampex 11.0.3 software. The borosilicate glass pipettes were pulled and fire-polished to 3∼6 MΩ using a DMZ universal electrode puller (Zeitz-Instruments, GmbH). Pipette solution and bath solution both contained (in mM): 130 NaCl, three HEPES, and 0.2 EDTA (pH = 7.4). Cell membrane potential was held at 0 mV, currents were recorded at a voltage ramp from −100 to +100 mV for 500-ms and analyzed at ±80 mV.

hTRPV3 I505A mutant = molecular target: T2, hTRPV3 I505A mutant (Homo sapiens, UniProt Q8NET8, I505A); assay: Whole-cell recordings of TRPV3 I505A mutant; conditions: 100 μM flopropione, 2-APB
T2 construct: expressed in transfected cells; host or cells: HEK293
T2 sequence (Q8NET8 1-790 I505A): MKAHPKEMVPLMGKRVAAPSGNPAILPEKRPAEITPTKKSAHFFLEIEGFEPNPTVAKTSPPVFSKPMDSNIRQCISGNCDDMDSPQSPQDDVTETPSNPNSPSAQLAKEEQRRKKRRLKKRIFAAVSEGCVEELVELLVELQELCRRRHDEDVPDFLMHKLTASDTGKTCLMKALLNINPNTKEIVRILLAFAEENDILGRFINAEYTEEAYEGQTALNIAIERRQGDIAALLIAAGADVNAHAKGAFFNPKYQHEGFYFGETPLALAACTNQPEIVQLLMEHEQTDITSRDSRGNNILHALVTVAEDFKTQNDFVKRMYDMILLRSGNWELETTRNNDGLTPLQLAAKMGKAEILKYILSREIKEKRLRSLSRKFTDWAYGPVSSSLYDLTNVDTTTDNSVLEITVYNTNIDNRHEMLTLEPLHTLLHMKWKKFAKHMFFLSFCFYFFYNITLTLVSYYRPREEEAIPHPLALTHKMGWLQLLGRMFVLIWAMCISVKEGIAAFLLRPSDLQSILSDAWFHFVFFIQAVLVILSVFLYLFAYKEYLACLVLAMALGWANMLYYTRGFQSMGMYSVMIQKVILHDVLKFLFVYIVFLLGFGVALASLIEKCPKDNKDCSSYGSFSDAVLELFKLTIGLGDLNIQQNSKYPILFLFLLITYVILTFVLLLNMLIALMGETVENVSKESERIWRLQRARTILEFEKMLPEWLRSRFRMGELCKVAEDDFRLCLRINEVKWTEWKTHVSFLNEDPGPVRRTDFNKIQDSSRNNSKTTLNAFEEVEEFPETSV
Method: as §1, §2

hTRPV3 R509A mutant = molecular target: T3, hTRPV3 R509A mutant (Homo sapiens, UniProt Q8NET8, R509A); assay: Whole-cell recordings of TRPV3 R509A mutant; conditions: 100 μM flopropione, 2-APB
T3 construct: expressed in transfected cells; host or cells: HEK293
T3 sequence (Q8NET8 1-790 R509A): T2 sequence (Q8NET8 1-790 I505A) with A505I, R509A
Method: as §1, §2

effect on TRPV1 currents (hTRPV1): no effect | effect of I505 mutation on inhibition by flopropione (hTRPV3 I505A mutant): partially reduced TRPV3 inhibition
Compound: CCC(=O)c1c(O)cc(O)cc1O [flopropione]
sensitivity of R509A mutant to flopropione inhibition (hTRPV3 R509A mutant): maintained the sensitivity to flopropione inhibition
